Measurements taken from PubChem BioAssay (NCI).
“And” between values parts separate entries of the source, which are not always exact repeats. Identical values can stand only once.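 Cultured in 96-well plates, cells were exposed to test compound for 48 hours across five concentrations. The concentration for 50% growth inhibition is given as GI50. At the TGI there is no net growth.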

Assays:
Experiment in all cases: NCI-60 cell line screen, 48 h
SK-MEL-28 melanoma = system: SK-MEL-28 melanoma
OVCAR-5 ovarian = system: OVCAR-5 ovarian
SNB-19 CNS = system: SNB-19 CNS
SF-268 CNS = system: SF-268 CNS
T-47D breast = system: T-47D breast
SK-MEL-2 melanoma = system: SK-MEL-2 melanoma
UACC-62 melanoma = system: UACC-62 melanoma
HOP-92 NSCLC = system: HOP-92 NSCLC
RXF 393 renal = system: RXF 393 renal
SN12C renal = system: SN12C renal

SMILES	GI50 (SK-MEL-28 melanoma)	TGI (SK-MEL-28 melanoma)	GI50 (OVCAR-5 ovarian)	TGI (OVCAR-5 ovarian)	GI50 (SNB-19 CNS)	TGI (SNB-19 CNS)	GI50 (SF-268 CNS)	TGI (SF-268 CNS)	GI50 (T-47D breast)	TGI (T-47D breast)	GI50 (SK-MEL-2 melanoma)	TGI (SK-MEL-2 melanoma)	GI50 (UACC-62 melanoma)	TGI (UACC-62 melanoma)	GI50 (HOP-92 NSCLC)	TGI (HOP-92 NSCLC)	GI50 (RXF 393 renal)	TGI (RXF 393 renal)	GI50 (SN12C renal)	TGI (SN12C renal)
C=C1C(=O)O[C@H]2[C@H]1CC/C(COC(=O)c1cn(C)c3ccccc13)=C\CC[C@@]1(C)O[C@@H]21	1.55 µM	3.08 µM	1.56 µM	4.11 µM	1.59 µM	3.64 µM	1.3 µM	2.86 µM	1.19 µM	3.42 µM	1.38 µM	2.82 µM	1.26 µM	2.74 µM	0.365 µM	2 µM	0.589 µM	2.11 µM	0.719 µM	2.3 µM
COC1(OC)C2(Cl)C(Cl)=C(Cl)C1(Cl)C1c3ccc(C(C)=O)c4cccc(c34)C12 (centres undefined)		> 100 µM		> 100 µM		> 100 µM		> 100 µM		99.3 µM		50.1 µM		> 100 µM		22.1 µM		> 100 µM		> 100 µM
CCNc1cc2oc(=O)cc(C(F)(F)F)c2cc1C		> 100 µM		> 100 µM		> 100 µM		> 100 µM		> 100 µM		> 100 µM		> 100 µM		> 100 µM		> 100 µM		> 100 µM
Cc1cc(C(=O)Nc2cc(Oc3ccc4nc(NC(=O)C5CC5)cn4n3)ccc2C)n(C)n1	> 10 µM	> 10 µM	> 10 µM	> 10 µM	> 10 µM	> 10 µM	> 10 µM	> 10 µM	> 10 µM	> 10 µM	> 10 µM	> 10 µM	> 10 µM	> 10 µM	3.27 µM	> 10 µM	7.46 µM	> 10 µM	> 10 µM	> 10 µM
O=C1NC(=O)[C@@]2(CC[C@@H](O)C2)c2ccncc21		> 100 µM		> 100 µM		> 100 µM		> 100 µM		> 100 µM		> 100 µM		> 100 µM		> 100 µM		> 100 µM		> 100 µM
O=C1C=C2C=CC3CC2(O1)C1CCCCN31 (centres undefined)	17.3 µM and 13.4 µM and 89.3 µM	39 µM and 36.4 µM and > 100 µM	34.7 µM and 25.9 µM and > 100 µM	> 100 µM		> 100 µM and 55.5 µM	25.4 µM and 12.7 µM and 41.2 µM	> 100 µM	22.3 µM and 14.1 µM and 53.4 µM	71.6 µM and 36.2 µM and > 100 µM		> 100 µM and 44.5 µM and 94.4 µM	15.8 µM and 13.9 µM and 57.1 µM	42.3 µM and 30.1 µM and > 100 µM		65.8 µM and 48.3 µM and 66 µM			11.8 µM and 14.8 µM and 25 µM	31.4 µM and 33.7 µM and 74.4 µM
COc1cccc(-n2ncc3c(N/N=C/c4ccc(C)cc4)ncnc32)c1	> 25 µM	> 25 µM	> 25 µM	> 25 µM	> 25 µM	> 25 µM	> 25 µM	> 25 µM	> 25 µM	> 25 µM	> 25 µM	> 25 µM	> 25 µM	> 25 µM	2.14 µM	> 25 µM	> 25 µM	> 25 µM	> 25 µM	> 25 µM
COC12C=C/C(=C(/C(=O)OCCSc3ccnn3C)C(=O)CCCCCCCCC3(OC)C=C/C(=C(/C(=O)OCCSc4ccnn4C)C(=O)CCCCCCCC1)O3)O2	1.09 µM	8.24 µM	1.73 µM	> 32.5 µM	1.88 µM	> 32.5 µM	1.15 µM	> 32.5 µM	1.26 µM	> 32.5 µM	0.928 µM	2.8 µM	0.716 µM	1.85 µM	0.847 µM	2.55 µM	0.665 µM	1.17 µM	1.05 µM	5.64 µM
Cc1c(N)nc([C@H](CC(N)=O)NC[C@H](N)C(N)=O)nc1C(=O)N[C@H](C(=O)N[C@H](C)[C@@H](O)CC(=O)N[C@H](C(=O)NC(O[C@@H]1O[C@@H](C)[C@@H](N)[C@@H](O)[C@H]1O)C(O)c1nc(-c2nc(C(=O)NCCCCN)cs2)cs1)[C@@H](C)O)[C@@H](O[C@@H]1O[C@@H](CO)[C@@H](O)[C@H](O)[C@@H]1O[C@H]1O[C@H](CO)[C@@H](O)[C@H](OC(N)=O)[C@@H]1O)c1c[nH]cn1 (some centres undefined)		> 50 µM		> 50 µM		> 50 µM		> 50 µM		> 50 µM		> 50 µM		> 50 µM		> 50 µM		> 50 µM		> 50 µM
O=C(O)/C=C/c1ccc[c]([Sb](=[O])([OH])[OH])c1	> 100 µM	> 100 µM	> 100 µM	> 100 µM	> 100 µM	> 100 µM	> 100 µM	> 100 µM	> 100 µM	> 100 µM	> 100 µM	> 100 µM	> 100 µM	> 100 µM	> 100 µM	> 100 µM	> 100 µM	> 100 µM	> 100 µM	> 100 µM
O=C(O)CNc1ccc(Cl)c(Cl)c1				> 100 µM		> 100 µM		> 100 µM		> 100 µM				90.4 µM		51.6 µM		> 100 µM		94.3 µM
COc1cc(-c2nn(-c3cccc(NC(=O)NCCNS(=O)(=O)c4ccc(Cl)cc4)c3)cc2-c2ccncc2)ccc1Cl	1.48 µM	13.2 µM	2.82 µM	> 100 µM	1.16 µM	> 100 µM	0.792 µM	4.39 µM	0.646 µM	18.1 µM	0.629 µM	2.81 µM	0.499 µM	2.39 µM	0.886 µM	5.45 µM	0.307 µM	2.18 µM	1.19 µM	13.2 µM
Cc1cn(CCC(N)C(=O)O)c(=O)[nH]c1=O (centres undefined)		> 100 µM		> 100 µM		> 100 µM		> 100 µM		> 100 µM		> 100 µM		> 100 µM		> 100 µM		> 100 µM		> 100 µM
CCN(CC)CCCOc1ccc2ncnc(Nc3ccc(Oc4cccc(C(F)(F)F)c4)c(Cl)c3)c2c1	1.63 µM	2.99 µM	1.56 µM	2.99 µM			1.44 µM	3.07 µM	1.41 µM	3.76 µM			1.76 µM	3.22 µM	1.23 µM	2.61 µM	1.45 µM	2.97 µM	1.34 µM	2.69 µM
